Assay results from PubChem BioAssay (NCI).
“And” between values parts separate entries of the source, which are not always exact repeats. Identical values can stand only once.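 In this assay, cells in 96-well plates receive the compound at five concentrations for 48 hours. Endpoints are linearly interpolated between the surrounding concentrations. At the GI50, growth is halved. TGI denotes the concentration required for complete inhibition of growth.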

Assays:
Assay in all cases: NCI tumour cell line growth inhibition, 48 h
[1] = test system: HL-60(TB) leukemia
[2] = test system: CAKI-1 renal
[3] = test system: SR leukemia
[4] = test system: LOX IMVI melanoma
[5] = test system: OVCAR-4 ovarian
[6] = test system: HT29 colon
[7] = test system: RPMI-8226 leukemia
[8] = test system: HOP-62 NSCLC
[9] = test system: MOLT-4 leukemia
[10] = test system: UACC-257 melanoma

| SMILES | GI50 [1] | TGI [2] | TGI [3] [µM] | GI50 [4] [µM] | TGI [4] | GI50 [5] [µM] | TGI [5] | TGI [6] | GI50 [7] [µM] | TGI [7] [µM] | GI50 [8] [µM] | TGI [8] | GI50 [9] | TGI [9] | GI50 [10] | TGI [10] [µM] | TGI [1] | GI50 [2] | GI50 [3] | GI50 [6] [µM] |
| --- | --- | --- | --- | --- | --- | --- | --- | --- | --- | --- | --- | --- | --- | --- | --- | --- | --- | --- | --- | --- |
| C/C(=N\NC(=O)c1ccccc1O)c1cccc(/C(C)=N/NC(=O)c2ccccc2O)n1 | 0.784 µM and 0.504 µM | > 100 µM | > 100 | 0.505 | > 100 µM | 15.9 | > 100 µM | > 100 µM | > 100 | > 100 | 0.467 | 31.7 µM and 6.42 µM | 0.424 µM | 17.5 µM and > 100 µM | 16.5 µM and > 100 µM | > 100 | – | – | – | – |
| Nc1nc(N)c2c(ccc3nccc32)[nH]1 | 2.53 µM | 12.8 µM | – | 0.839 | 16.6 µM | 21.5 | 66.6 µM | > 73.9 µM | 3.73 | 21.7 | 24.8 | > 100 µM | 3.12 µM | > 92.1 µM | 1.54 µM | 17.9 | > 78.8 µM | 2.82 µM | 1.29 µM | 1.67 |
| NCCCC1NC(=O)/C(=C(O)/C=C/C2CCC[C@@H]2CC2SCCS2)C1=O (stereo partly drawn) | – | – | > 100 | – | > 100 µM | – | > 100 µM | > 100 µM | – | > 100 | – | > 100 µM | – | > 100 µM | – | > 100 | 64.3 µM | – | – | – |
| N#CSCc1c(Cl)cccc1Cl | – | > 20.2 µM | > 24 | 3.55 | > 100 µM | 5.82 | > 100 µM | > 100 µM | < 0.0506 | 1.33 | 36.6 | > 100 µM | – | – | 10.9 µM | > 81.3 | – | 0.309 µM | – | 3.75 |
| Nc1ncnc2c(C3OC(CO)C(O)C3O)scc12 (stereo not drawn) | – | – | 2.49 | 0.0233 | 1.49 µM and 2 µM | – | 2.24 µM and 0.746 µM | 1.12 µM | – | – | 0.12 | 2.02 µM and 3.02 µM | 0.0989 µM | 1.99 µM and 1.9 µM | 1.11 µM | – | 0.00946 µM | – | 0.0621 µM | – |
| CO/N=C(/COc1c(-c2ccccc2)oc2ccccc2c1=O)c1ccc(OC)cc1 | 21.5 µM | > 100 µM | 53.4 | > 100 | > 100 µM | 81.4 | > 100 µM | > 100 µM | 41.9 | > 100 | > 100 | > 100 µM | – | – | > 100 µM | > 100 | > 100 µM | > 100 µM | 9.1 µM | 51.6 |
| CN(C)CC/C(=N\Nc1ccc(Cl)c(Cl)c1)c1ccccc1 | – | – | 5.58 | – | 3.06 µM | – | 5.01 µM | 4.05 µM | – | 6.73 | – | 6.09 µM | – | 5.9 µM | – | 9.61 | 5.8 µM | – | – | – |
| O=C1[C@@H]2C3SC(c4ccccc43)[C@@H]2C(=O)N1c1ccccc1 | – | > 100 µM | > 100 | – | > 100 µM | – | – | > 100 µM | – | > 100 | – | > 100 µM | – | > 100 µM | – | > 100 | > 100 µM | – | – | – |
| CC(C)(C)OC(=O)NC1CCC[C@H]1O (stereo partly drawn) | – | > 100 µM | > 100 | – | > 100 µM | – | > 100 µM | > 100 µM | – | – | – | > 100 µM | – | > 100 µM | – | > 100 | – | – | – | – |
| CC1(C)CC(=O)c2c(ccc(C(=O)C[C@H](N)CO)c2N)O1 | 8.45 µM and 6.34 µM | 17.5 µM and 6.03 µM | – | – | – | > 33.3 | > 33.3 µM | 17.5 µM and > 33.3 µM | 4.62 | 17.5 | 2.39 | 17.5 µM and > 33.3 µM | 1.61 µM and 0.177 µM | 17.5 µM and 26.7 µM | 20.3 µM | > 33.3 | 17.5 µM and > 33.3 µM | 3.27 µM and 0.447 µM | 0.612 µM and 0.0752 µM | – |
| C#C[C@@]1(O)[C@@H](CO)O[C@@H](n2ccc3c(N)ncnc32)[C@@H]1O | 1.57 µM | – | > 100 | 0.667 | 2.05 µM | 1.97 | 7.79 µM | – | 0.777 | > 100 | 2.05 | 7.91 µM | 0.614 µM | > 100 µM | 2.31 µM | 7.06 | 5.49 µM | – | 0.817 µM | 0.97 |
| O=C(/C=C/c1ccccc1O)c1cccnc1 | – | > 100 µM | > 100 | – | > 100 µM | – | > 100 µM | > 100 µM | – | – | – | > 100 µM | – | > 100 µM | – | > 100 | > 100 µM | – | – | – |
| ClC1=NC(Cl)C(Cl)=N/C1=N\c1ncn[nH]1 (stereo not drawn) | – | 3.32 µM | 3.63 | 1.89 | 3.72 µM | 1.89 | 3.61 µM | 3.9 µM | 1.97 | 4.43 | 2.3 | 5.11 µM | – | – | 1.7 µM | 4.25 | – | 1.78 µM | 1.3 µM | 2.03 |
